Measured values from US20260355165A1, “2,3,4,9-TETRAHYDRO-1H-PYRIDO[3,4-B]INDOLE DERIVATIVES AS ESTROGEN RECEPTOR MODULATORS FOR THE TREATMENT OF CANCER” (Olema Pharmaceuticals, Inc., priority 2022, published 2026).

Molecular target: T1, estrogen receptor (Homo sapiens, UniProt P03372)
T1 construct: endogenous in cells; host or cells: ECC-1 cells
T1 sequence (P03372 1-595): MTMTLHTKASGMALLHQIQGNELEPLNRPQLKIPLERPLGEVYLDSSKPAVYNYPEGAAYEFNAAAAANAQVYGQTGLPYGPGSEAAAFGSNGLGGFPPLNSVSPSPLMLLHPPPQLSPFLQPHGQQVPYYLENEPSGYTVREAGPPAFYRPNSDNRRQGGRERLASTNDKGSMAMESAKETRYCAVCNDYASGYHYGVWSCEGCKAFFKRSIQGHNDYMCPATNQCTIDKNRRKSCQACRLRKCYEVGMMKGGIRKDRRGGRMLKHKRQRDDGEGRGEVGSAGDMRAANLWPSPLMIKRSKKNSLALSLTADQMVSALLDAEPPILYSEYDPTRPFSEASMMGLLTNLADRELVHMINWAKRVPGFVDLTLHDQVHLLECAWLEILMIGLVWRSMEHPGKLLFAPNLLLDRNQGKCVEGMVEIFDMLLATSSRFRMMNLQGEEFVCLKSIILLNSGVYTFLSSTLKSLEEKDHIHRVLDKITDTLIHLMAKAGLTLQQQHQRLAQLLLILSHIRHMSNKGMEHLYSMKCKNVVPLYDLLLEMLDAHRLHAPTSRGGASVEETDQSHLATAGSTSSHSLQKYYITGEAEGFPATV
Assay: AP assay (alkaline phosphatase activity in ECC-1 cells), agonist mode (absence of E2) and antagonist mode (presence of 500 pM E2)
Format: cell-based
Conditions: 3 days, AP activity normalized to 500 pM E2 alone, agonist and antagonist mode combined
How it was run: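 ECC-1 cells in hormone-depleted medium treated with compounds for 3 days, without E2 (agonist mode) or with 500 pM E2 (antagonist mode). AP activity read at 405 nm after p-nitrophenyl phosphate substrate, 40 min at 42 °C. Signal normalized to 500 pM E2 alone.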

Compound | Activity (estrogen receptor modulation, e.g., agonism and antagonism)
C[C@@H]1Cc2c([nH]c3ccccc23)[C@@H](c2c[nH]c3cc(CO)ccc23)N1CC(C)(C)F [Compound I-1, [3-[(1R,3R)-2-(2-fluoro-2-methyl-propyl)-3-methyl-1,3,4,9-tetrahydropyrido[3,4-b]indol-1-yl]-1H-indol-6-yl]methanol] | + (estrogen receptor agonism having (i) at least 80% increase in the E2-normalized signal in the AP assay (agonist mode) and (ii) no more than 80% reduction in the E2-normalized signal in the AP assay (antagonist mode))
C[C@@H]1Cc2c([nH]c3ccccc23)[C@@H](c2cc3[nH]c(C(=O)O)cc3s2)N1CC(C)(C)F.N [Compound I-65, ammonium; 2-[(1S,3R)-2-(2-fluoro-2-methyl-propyl)-3-methyl-1,3,4,9-tetrahydropyrido[3,4-b]indol-1-yl]-4H-thieno[3,2-b]pyrrole-5-carboxylate] | ++ (estrogen receptor antagonism having (i) between 10% and 80% increase in the E2-normalized signal in the AP assay (agonist mode) and (ii) between 10% and 80% reduction in the E2-normalized signal in the AP assay (antagonist mode))
C[C@@H]1Cc2c([nH]c3ccccc23)[C@@H](c2c[nH]c3cc(CN(C)CCCF)ccc23)N1CC(C)(C)F [Compound I-9, 3-fluoro-N-[[3-[(1R,3R)-2-(2-fluoro-2-methyl-propyl)-3-methyl-1,3,4,9-tetrahydropyrido[3,4-b]indol-1-yl]-1H-indol-6-yl]methyl]-N-methyl-propan-1-amine] | + (estrogen receptor agonism having (i) at least 80% increase in the E2-normalized signal in the AP assay (agonist mode) and (ii) no more than 80% reduction in the E2-normalized signal in the AP assay (antagonist mode))
C[C@@H]1Cc2c([nH]c3ccccc23)[C@@H](c2ccc3[nH]c(CN4CC(C#N)C4)cc3c2)N1CC(C)(C)F [Compound I-50, 1-[[5-[(1R,3R)-2-(2-fluoro-2-methyl-propyl)-3-methyl-1,3,4,9-tetrahydropyrido[3,4-b]indol-1-yl]-1H-indol-2-yl]methyl]azetidine-3-carbonitrile] | + (estrogen receptor agonism having (i) at least 80% increase in the E2-normalized signal in the AP assay (agonist mode) and (ii) no more than 80% reduction in the E2-normalized signal in the AP assay (antagonist mode))
CC1CN(Cc2cc3cc([C@@H]4c5[nH]c6ccccc6c5C[C@@H](C)N4CC(C)(C)F)sc3[nH]2)C1 [Compound I-62, 2-[(1S,3R)-2-(2-fluoro-2-methyl-propyl)-3-methyl-1,3,4,9-tetrahydropyrido[3,4-b]indol-1-yl]-5-[(3-methylazetidin-1-yl)methyl]-6H-thieno[2,3-b]pyrrole] | ++ (estrogen receptor antagonism having (i) between 10% and 80% increase in the E2-normalized signal in the AP assay (agonist mode) and (ii) between 10% and 80% reduction in the E2-normalized signal in the AP assay (antagonist mode))
C[C@@H]1Cc2c([nH]c3ccccc23)[C@@H](c2cc3cc(CN4CC(CF)C4)[nH]c3s2)N1CC(C)(C)F [Compound I-63, 5-[[3-(fluoromethyl)azetidin-1-yl]methyl]-2-[(1S,3R)-2-(2-fluoro-2-methyl-propyl)-3-methyl-1,3,4,9-tetrahydropyrido[3,4-b]indol-1-yl]-6H-thieno[2,3-b]pyrrole] | ++ (estrogen receptor antagonism having (i) between 10% and 80% increase in the E2-normalized signal in the AP assay (agonist mode) and (ii) between 10% and 80% reduction in the E2-normalized signal in the AP assay (antagonist mode))
C[C@@H]1Cc2c([nH]c3ccccc23)[C@@H](c2ccc3oc(CN4CC5(CCC5)C4)nc3c2)N1CC(C)(C)F [Compound I-77, 2-(2-azaspiro[3.3]heptan-2-ylmethyl)-5-[(1R,3R)-2-(2-fluoro-2-methyl-propyl)-3-methyl-1,3,4,9-tetrahydropyrido[3,4-b]indol-1-yl]-1,3-benzoxazole] | +++ (estrogen receptor antagonism (i) with pIC50 greater than 7.5 and at least a 10% reduction in the E2-normalized signal in the AP assay (antagonist mode); and (ii) no more than 10% increase in E2-normalized signal in the AP assay (agonist mode))
C[C@@H]1Cc2c([nH]c3ccccc23)[C@@H](c2c[nH]c3cc(CC4CN(C)C4)ccc23)N1CC(C)(C)F [Compound I-30, (1R,3R)-2-(2-fluoro-2-methyl-propyl)-3-methyl-1-[6-[(1-methylazetidin-3-yl)methyl]-1H-indol-3-yl]-1,3,4,9-tetrahydropyrido[3,4-b]indole] | + (estrogen receptor agonism having (i) at least 80% increase in the E2-normalized signal in the AP assay (agonist mode) and (ii) no more than 80% reduction in the E2-normalized signal in the AP assay (antagonist mode))
COCC1CN(Cc2cc3cc([C@@H]4c5[nH]c6ccccc6c5C[C@@H](C)N4CC(C)(C)F)ccc3[nH]2)C1 [Compound I-51, (1R,3R)-2-(2-fluoro-2-methyl-propyl)-1-[2-[[3-(methoxymethyl)azetidin-1-yl]methyl]-1H-indol-5-yl]-3-methyl-1,3,4,9-tetrahydropyrido[3,4-b]indole] | + (estrogen receptor agonism having (i) at least 80% increase in the E2-normalized signal in the AP assay (agonist mode) and (ii) no more than 80% reduction in the E2-normalized signal in the AP assay (antagonist mode))
C[C@@H]1Cc2c([nH]c3ccccc23)[C@@H](c2ccc3oc(CN4CC(CF)C4)nc3c2)N1CC(C)(C)F [Compound I-75, 2-[[3-(fluoromethyl)azetidin-1-yl]methyl]-5-[(1R,3R)-2-(2-fluoro-2-methyl-propyl)-3-methyl-1,3,4,9-tetrahydropyrido[3,4-b]indol-1-yl]-1,3-benzoxazole] | +++ (estrogen receptor antagonism (i) with pIC50 greater than 7.5 and at least a 10% reduction in the E2-normalized signal in the AP assay (antagonist mode); and (ii) no more than 10% increase in E2-normalized signal in the AP assay (agonist mode))
CC1CN(Cc2cc3cc([C@@H]4c5[nH]c6ccccc6c5C[C@@H](C)N4CC(F)(F)CO)ccc3[nH]2)C1 [Compound I-46, 2,2-difluoro-3-[(1R,3R)-3-methyl-1-[2-[(3-methylazetidin-1-yl)methyl]-1H-indol-5-yl]-1,3,4,9-tetrahydropyrido[3,4-b]indol-2-yl]propan-1-ol] | +++ (estrogen receptor antagonism (i) with pIC50 greater than 7.5 and at least a 10% reduction in the E2-normalized signal in the AP assay (antagonist mode); and (ii) no more than 10% increase in E2-normalized signal in the AP assay (agonist mode))
C[C@@H]1Cc2c([nH]c3ccccc23)[C@@H](c2ccc3nc(CN4CC(CF)C4)cn3c2)N1CC(C)(C)F [Compound I-73, (1R,3R)-1-[2-[[3-(fluoromethyl)azetidin-1-yl]methyl]imidazo[1,2-a]pyridin-6-yl]-2-(2-fluoro-2-methyl-propyl)-3-methyl-1,3,4,9-tetrahydropyrido[3,4-b]indole] | + (estrogen receptor agonism having (i) at least 80% increase in the E2-normalized signal in the AP assay (agonist mode) and (ii) no more than 80% reduction in the E2-normalized signal in the AP assay (antagonist mode))
C[C@@H]1Cc2c([nH]c3ccccc23)[C@@H](c2n[nH]c3cc(CN4CC(CF)C4)ccc23)N1CC(C)(C)F [Compound I-10, (1S,3R)-1-[6-[[3-(fluoromethyl)azetidin-1-yl]methyl]-1H-indazol-3-yl]-2-(2-fluoro-2-methyl-propyl)-3-methyl-1,3,4,9-tetrahydropyrido[3,4-b]indole] | +++ (estrogen receptor antagonism (i) with pIC50 greater than 7.5 and at least a 10% reduction in the E2-normalized signal in the AP assay (antagonist mode); and (ii) no more than 10% increase in E2-normalized signal in the AP assay (agonist mode))
C[C@@H]1Cc2c([nH]c3ccccc23)[C@@H](c2cc3ccc(CN4CC(CF)C4)cc3[nH]2)N1CC(C)(C)F [Compound I-56, (1R,3R)-1-[6-[[3-(fluoromethyl)azetidin-1-yl]methyl]-1H-indol-2-yl]-2-(2-fluoro-2-methyl-propyl)-3-methyl-1,3,4,9-tetrahydropyrido[3,4-b]indole] | + (estrogen receptor agonism having (i) at least 80% increase in the E2-normalized signal in the AP assay (agonist mode) and (ii) no more than 80% reduction in the E2-normalized signal in the AP assay (antagonist mode))
CC1CN(Cc2ccc3c([C@@H]4c5[nH]c6ccccc6c5C[C@@H](C)N4CC(F)F)n[nH]c3c2)C1 [Compound I-37, (1S,3R)-2-(2,2-difluoroethyl)-3-methyl-1-(6-((3-methylazetidin-1-yl)methyl)-1H-indazol-3-yl)-2,3,4,9-tetrahydro-1H-pyrido[3,4-b]indole] | ++ (estrogen receptor antagonism having (i) between 10% and 80% increase in the E2-normalized signal in the AP assay (agonist mode) and (ii) between 10% and 80% reduction in the E2-normalized signal in the AP assay (antagonist mode))
